# Source: patent US9878977B2, “N-((3,4,5-trimethoxystyryl)aryl)cinnamamide compounds as potential anticancer agents and process for the preparation thereof” (COUNCIL OF SCIENTIFIC & INDUSTRIAL RESEARCH, priority 2014, dated 2018)
# Tests used:
# [1] = system: SK-OV-3; conditions: Human ovarian cancer; data from NCI60 dose response (NSC 613729); cited from earlier work
# [2] = system: K562; conditions: Human leukemia; data from NCI60 dose response (NSC 613729); cited from earlier work
# [3] = system: DU-145; experiment: SRB anti-proliferative assay, DU-145; type: cell-based, Human; conditions: DU-145; Human prostate cancer; concentration of drug causing 50% inhibition of cell growth; read-out: GI50 DU-145
# Protocol: (§1) The synthesized N-(3,4,5-trimethoxystyryl)aryl)cinnamamides were evaluated for their anti-proliferative activity in selected human cancer cell lines of breast cancer (MCF-7), prostate cancer (DU-145), lung cancer (Hop-62), cervical cancer (Hela), leukemia (K562), ovarian cancer (SK-OV-3), colon cancer (Colo-205), pancreatic (MAIPA-CA-2) by using sulforhodamine B (SRB) method (Vichai, V.; Kirtikara, K. Nat. Protoc. 2006, 1, 1112). […] CA-4 was used as the reference compound.
# [4] = system: Hop-62; conditions: Human lung cancer; data from NCI60 dose response (NSC 613729); cited from earlier work
# [5] = system: Colo-205; experiment: SRB anti-proliferative assay, Colo-205; type: cell-based, Human; conditions: COLO 205; Human colon cancer; concentration of drug causing 50% inhibition of cell growth; read-out: GI50 Colo-205
# Protocol: as §1
# [6] = system: MCF-7; experiment: SRB anti-proliferative assay, MCF-7; type: cell-based, Human; conditions: MCF7; Human breast cancer; concentration of drug causing 50% inhibition of cell growth; read-out: GI50 MCF-7
# Protocol: as §1
# [7] = system: Hela; experiment: SRB anti-proliferative assay, Hela; type: cell-based, Human; conditions: Human cervical cancer, concentration of drug causing 50% inhibition of cell growth, read-out: GI50 Hela
# Protocol: as §1
smiles,measurement,setting,value
"COc1ccc(/C=C\c2cc(OC)c(OC)c(OC)c2)cc1O [CA-4, combretastatin A4, reference compound]",GI50,[1],31.6 µM
same,GI50,[2],0.031 µM
same,GI50,[3],0.046 µM
same,GI50,[4],0.15 µM
same,GI50,[5],0.025 µM
same,GI50,[6],0.033 µM
same,GI50,[7],0.008 µM
